# Data: US12673039B2, “Methods of inducing autophagy using coumarin derivatives and related compounds” (Buck Institute for Research on Aging, priority 2019, dated 2026)
# Key:
# [1] = system: worms expressing human Abeta and alpha-synuclein; assay: Neurodegenerative C. elegans models expressing human Abeta and alpha-synuclein (Example 1); type: in vivo; settings: worms expressing human Abeta and alpha-synuclein (FIG. 11)
# Description: FIGS. 11A-11D illustrate that coumarin 106 (“C1”, “AIC106”) is protective in a TFEB-dependent manner in C. elegans models that express human neurotoxic proteins. FIG. 11A) Transgenic worm strain expressing human alpha-synuclein under control of the dopamine-specific promoter grown on control or HLH-30 RNAi were exposed to 20 μM C1 versus DMSO-only controls on day-1 of adulthood. GFP+ cell counts were performed in young adults. Values represent number of animals displaying no DAergic cell loss; pooled results from 2 independent experiments. FIG. 11B) Transgenic worm strain expressing human alpha-synuclein under control of the muscle-specific promoter grown on control or HLH-30 RNAi were exposed to 20 μM C1 versus DMSO-only control on day-1 of adulthood followed by transfer to fresh plates every alternative day. Number of trashes per 30 sec were measured at day-6 and day-7 (n>60). *p<0.03, ***p<0.0008, ****p<0.0001. FIG. 11C) Transgenic worms expressing Abeta tagged with GFP within glutaminergic neurons grown on control or HLH-30 RNAi were exposed to 50 or 200 μM C1 versus DMSO-only controls on day-1 of adulthood. GFP+ cell counts were performed in young adults. Values represent % intact neurons. […] Number of trashes per 30 sec were measured at day-6 and day-7 (n>60). *p<0.03, ****p<0.0001. […]
# TFEB = TFEB activation screen, % activation/control at 24 and 48 hrs (Table 1); type: cell-based, human
# Description: FIG. 25, panels A-B::AIC106 identified as a lead compound in a TFEB-transcription based screen. Panel A) Rat Neuronal N27 cells were transfected with a vector construct driving expression of secreted-Gaussia luciferase (Sec-Gaussia) in control of 2 kb human TFEB promoter. Next day, cells were seeded into 96-well cell culture plate and exposed to compounds (30 μM) from natural product library (NPL-640) or DMSO-control. After 24 and 48 hours of compound treatment supernatant from the cells was collected and TFEB promoter activity determined by quantifying luciferase activity. Panel B) Effects of AIC106 treatment on HLH-30 expression after 24 hours treatment were determined by immunoblot against GFP in young adult stage of GFP-tagged HLH-30 strain (MAH235) following total protein extraction.
# It was discovered that small structural alterations in the C1 compound can have significant effects on the degree of TFEB activation (see, e.g., FIG. 17) the screening systems described herein identified a number of structures related to C1 that similarly induce TFEB.
# In vitro drug screening studies. […] We utilized for these studies a 3000 compound natural product derivative library (Timtec, Newark, DE) in […] transfected with a sensitive TFEB promotor-Gaussian luciferase construct. […] C1 is a coumarin-related compound, part of a family of natural benzopyrones found in many edible plants.
# To identify novel transcriptional inducers of TFEB, we transfected rat neuronal N27 cells with a vector driving expression of secreted-luciferase under control of the human TFEB promoter. […] AIC106 belongs to a family of coumarin compounds containing an active benzopyrone ring.
# [2] = system: parkin mutant PD mouse model; assay: Age-related parkin mutant PD mouse model, C1 in the feed; type: in vivo; settings: oral in the feed
# From the text: Relative TFEB expression as assessed by qPCR from mRNA extracted from the SNpc of parkin mutant versus WT littermates administered C1 in the feed versus normal chow; UA was included as a positive control.
# Stereological DAergic SNpc counts and motor behavior as assessed by rearing frequency in parkin mutant versus WT littermates administered C1 in the feed versus normal chow.
structure (smiles),measurement,setting,value
"O=c1oc2c3c4c(cc2c2c1CCC2)CCCN4CCC3 [C1, 2,3,6,7,10,11-Hexahydro-1H,5H-cyclopenta(3,4)(1)benzopyrano(6,7,8-ij)quinolizin-12(9H)-one]",protection in neurodegenerative C. elegans models,[1],protection in a TFEB-dependent manner
same,% activation/Control 24 hrs,TFEB; 24 hrs,350.83%
same,% activation/Control 48 hrs,TFEB; 48 hrs,413.96%
same,motor deficits (rearing frequency),[2]; 6 month period (FIG. 16),prevents both neuronal cell loss and motor deficits
same,neuronal cell loss (DAergic SNpc counts),[2]; 6 month period (FIG. 16),prevents both neuronal cell loss and motor deficits
same,TFEB expression in SNpc,[2]; 6 month period from 14-16 mo. (FIG. 15),TFEB target engagement
